We go through one molecule from PubChem BioAssay AID234 (DTP/NCI, 2004).

The subject of the assay is C3AKF1 mice, hamster liver cystadenocarcinoma s.c., tumor weight T/C. Description: NCI In Vivo Anticancer Drug Screen. Data for tumor model Cystadenocarcinoma, Liver (No. 1) (Hamster) (subcutaneous) in C3AKF1 (CHKRF1) mice. The following applies: endpoint: mean tumor weight; dose: 6.0 mg/kg/injection; schedule: Q01DX010 (ip); vehicle: carboxymethylcellulose (CMC); higher = larger tumour. The method, then: The antitumor activity of compounds was measured in mice bearing transplantable tumors. Survival or tumor size were measured and the results are expressed as the measurement made in the treated group (T) divided by the measurement made in the vehicle treated control group (C). The tumor model used in this assay is Cystadenocarcinoma, Liver (No. 1) (Hamster) (subcutaneous) in C3AKF1 (CHKRF1) mice

Inconclusive results are not listed.

Turning to `O=C1C=CC(=Nc2ccc(O)c3ncccc23)c2cccnc21`, the T/C is 95 % of control.
